For 2 molecules, tumor size growth and IC50 results are on record in patent US20240208961A1, “EIF4E INHIBITORS AND USES THEREOF” (PIC Therapeutics, Inc., priority 2022, published 2024).

As usually defined, the IC50 is the midpoint of a concentration-inhibition curve.

Structures are written as SMILES.

The subject of assay [1] is ZR-75-1 tumor. Kind of assay: ZR-75-1 subQ CDX model. The following applies: female BALB/c nude mice, 10 mg/kg, PO, QD, FIG. 14. It is filed as in vivo. As to the method:
Female BALB/c nude mice were inoculated with estrogen tablets (0.36 mg/pellet, 60 days to release) 48 hours before cell inoculation. The xenograft model was established by implantation of […] of ZR-75-1 tumor cell suspension (5×10^6 cells/mouse, with 50% Matrigel) subcutaneously into the right subaxillary of female BALB/c nude mice aged 6-8 weeks. When the average tumor volume reached 153.10 mm^3, the tumor-bearing mice were randomized into treatment groups. The groups were treated as follows: Group 1: vehicle, PO, QW; Group 2: Tamoxifen 10 mg/kg, PO, QD; Group 3: Compound I-11 50 mg/kg, PO, QW.
Cell culture: The ZR-75-1 (breast, ductal carcinoma) cell was purchased from (ATCC® CRL-1500™). The base medium for this cell line ATCC-formulated RPMI-1640 Medium. To make the complete growth medium, the base medium was supplemented with 10% heat inactivated FBS and 1% PS, maintained at 37° C. in an atmosphere containing 5% CO2 in air. The tumor cells were routinely subcultured at a ratio of 1:1.5 to 1:3 every 3-6 days. Cell concentration at harvest time was 5.39×10^7 cells/mL and cell viability was 94.3% before inoculation.
Tumor inoculation: BALB/c nude mice were used in this study. Each mouse was inoculated with estrogen tablets 48 hours before cell inoculation (0.3 mg/pellet, 60 days to release). […]

Assay [2] relates to MM.1S cells. Briefly: 5 day viability assay in MM.1S cells, I-11 and dexamethasone (Example 7). The following applies: Homo sapiens, MM1.S, 120 h; MM.1S cells (steroid sensitive), 5 days, Alamar Blue; read-out: IC50 (μM), Viability Assessment (5 Days) in MM.1S Cells. It is filed as cell-based. As to the method: (§1) Compound I-11 was studied in the context of dexamethasone combinations, which is used clinically in early Multiple Myeloma prior to the emergence of steroid resistance and is a common backbone therapy. The MM.1S cell line is a steroid sensitive line, and the MM.1R line is the corresponding cell line which has been driven to steroid resistance. The procedure for these studies was as follows:
(§2) Day 1: Cell Seeding and Compound Dosing
(§3) • Cells were seeded 2×10^5 in 96-well cell culture treated tissue culture plates: 87.5 μL/well; MM.1 S and MM.1R • A 5-fold serial dilution of each compound in DMSO (0-25 mM) was prepared in compound storage plates (stored at −80° C. if not to be used immediately). An 8-point curve was used for compound I-11, and a 6-point curve was used for dexamethasone (0-25 mM). • Cells were rinsed with 1% FBS Media and replaced with 87.5 μL media prior to dosing. • DMSO compound dilution series was diluted in 1% FBS media—2 μL compound in 123 μL media to give a 16× final concentration. Dosing across the plate columns 1-12 (compound I-11 0-400 μM), 6.25 μL 16× in media/well. Dosing down plate rows (columns 1-6 dexamethasone 0-400 μM), 6.25 μL 16× compound in media per well. • Cells were dosed with 12.5 μL for both compounds, with 2 replicates of dosing matrix per 96-well plate. Final volume cells and compound was 100 μL/well. • Media blank 100 μL/well×8 was set up. • All plates were incubated at 37° C.
(§4) Day 6: 5 Day Viability Assay
(§5) • Alamar Blue viability reagent was added (10 μL per well) and incubated for 3 hours at 37° C. prior to fluorescence detection (Ex560 nm/Em590 nm) on a Varioskan Lux multimode plate reader.
In general terms: Resazurin is reduced to fluorescent resorufin, in cell work by metabolically active cells.

The test system of assay [3] is MM.1R cells. Kind of assay: 5 day viability assay in MM.1R cells, I-11 and dexamethasone (Example 7). Type of assay: cell-based. The conditions noted are these: 120 h; MM.1R cells (steroid resistant), 5 days, Alamar Blue; read-out: IC50 (μM), Viability Assessment (5 Days) in MM.1R Cells. The protocol:
as §1, §2, §3, §4, §5

Take `CC/C(=C(\c1ccccc1)c1ccc(OCCN(C)C)cc1)c1ccccc1` [Tamoxifen, reference compound]: the tumor size growth result in assay [1] is reported as “reduced tumor size growth”.

`C[C@@H]1C[C@H]2[C@@H]3CCC4=CC(=O)C=C[C@]4(C)[C@@]3(F)[C@@H](O)C[C@]2(C)[C@@]1(O)C(=O)CO` [dexamethasone, reference compound]: the IC50 in assay [2] is 0.0133 µM; in assay [3] it was 30.9 µM.
